IC50 and EC50 data for 35 molecules are collected here from patent US7348425B2, “Inhibitors of HCV replication” (Bristol-Myers Squibb Company, priority 2004, dated 2008).

Each structure is given as a SMILES string.

The first assay deals with T1, HCV NS5B RdRp genotype 1b (Hepatitis C virus genotype 1b, UniProt Q9WMX2).
T1 construct: The protein was expressed with an 18 amino acid C-terminal truncation to enhance the solubility; made in house; host or cells: E. coli BL21 (DE3), pET21a
T1 sequence (Q9WMX2 2420-2992): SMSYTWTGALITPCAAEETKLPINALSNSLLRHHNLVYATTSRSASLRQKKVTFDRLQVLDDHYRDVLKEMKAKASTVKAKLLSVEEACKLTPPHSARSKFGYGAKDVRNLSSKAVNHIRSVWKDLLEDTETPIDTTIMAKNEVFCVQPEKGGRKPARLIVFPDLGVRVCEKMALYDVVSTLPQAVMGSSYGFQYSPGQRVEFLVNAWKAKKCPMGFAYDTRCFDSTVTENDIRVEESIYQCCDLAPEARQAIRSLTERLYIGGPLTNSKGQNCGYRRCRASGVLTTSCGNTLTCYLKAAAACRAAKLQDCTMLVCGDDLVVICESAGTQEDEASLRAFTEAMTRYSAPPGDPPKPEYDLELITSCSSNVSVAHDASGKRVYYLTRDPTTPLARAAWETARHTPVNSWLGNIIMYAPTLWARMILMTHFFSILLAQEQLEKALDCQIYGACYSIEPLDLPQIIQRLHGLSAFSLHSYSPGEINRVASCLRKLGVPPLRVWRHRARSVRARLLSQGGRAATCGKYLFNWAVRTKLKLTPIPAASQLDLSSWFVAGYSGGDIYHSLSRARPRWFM
The assay is described as follows: Modified HCV NS5B RdRp enzyme assay (with preincubation). Particulars: modified method (with preincubation). Type of assay: biochemical. The protocol:
HCVNS5B RdRp cloning, expression, and purification. The cDNA encoding the NS5B protein of HCV, genotype 1b, was cloned into the pET21a expression vector. The protein was expressed with an 18 amino acid C-terminal truncation to enhance the solubility. The E. coli competent cell line BL21 (DE3) was used for expression of the protein. Cultures were grown at 37° C. for ˜4 hours until the cultures reached an optical density of 2.0 at 600 nm. The cultures were cooled to 20° C. and induced with 1 mM IPTG. Fresh ampicillin was added to a final concentration of 50 μg/ml and the cells were grown overnight at 20° C.
Cell pellets (3 L) were lysed for purification to yield 15-24 mgs of purified NS5B. The lysis buffer consisted of 20 mM Tris-HCl, pH 7.4, 500 mM NaCl, 0.5% triton X-100, 1 mM DTT, 1 mM EDTA, 20% glycerol, 0.5 mg/ml lysozyme, 10 mM MgCl2, 15 ug/ml deoxyribonuclease I, and Complete TM protease inhibitor tablets (Roche). After addition of the lysis buffer, frozen cell pellets were resuspended using a tissue homogenizer. To reduce the viscosity of the sample, aliquots of the lysate were sonicated on ice using a microtip attached to a Branson sonicator. The sonicated lysate was centrifuged at 100,000×g for 1 hr at 4° C. and filtered through a 0.2 μm filter unit (Corning).
The protein was purified using three sequential chromatography steps: Heparin sepharose CL-6B, polyU sepharose 4B, and Hitrap SP sepharose (Pharmacia). The chromatography buffers were identical to the lysis buffer but contained no lysozyme, deoxyribonuclease I, MgCl2 or protease inhibitor and the NaCl concentration of the buffer was adjusted according to the requirements for charging the protein onto the column. Each column was eluted with a NaCl gradient which varied in length from 5-50 column volumes depending on the column type. After the final chromatography step, the resulting purity of the enzyme is >90% based on SDS-PAGE analysis. The enzyme was aliquoted and stored at −80° C.
Standard HCV NS5B RdRp enzyme assay. HCV RdRp genotype Ib assays were run in a final volume of 60 μl in 96 well plates (Costar 3912). The assay buffer is composed of 20 mM Hepes, pH 7.5, 2.5 mM KCl, 2.5 mM MgCl2, 1 mM DTT, 1.6 U RNAse inhibitor (Promega N2515), 0.1 mg/ml BSA (Promega R3961), and 2% glycerol. All compounds were serially diluted (3-fold) in DMSO and diluted further in water such that the final concentration of DMSO in the assay was 2%. HCV RdRp genotype 1b enzyme was used at a final concentration of 28 nM. A polyA template was used at 6 nM, and a biotinylated oligo-dT12 primer was used at 180 nM final concentration. Template was obtained commercially (Amersham 27-4110). Biotinylated primer was prepared by Sigma Genosys. ^3H-UTP was used at 0.6 μCi (0.29 μM total UTP). Reactions were initiated by the addition of enzyme, incubated at 30° C. for 60 min, and stopped by adding 25 μl of 50 mM EDTA containing SPA beads (4 μg/μl, Amersham RPNQ 0007). Plates were read on a Packard Top Count NXT after >1 hr incubation at room temperature.
Modified HCV NS5B RdRp enzyme assay. A modified enzyme assay was performed essentially as described for the standard enzyme assay except for the following: The biotinylated oligo dT12 primer was precaptured on streptavidin-coated SPA beads by mixing primer and beads in assay buffer and incubating at room temperature for one hour. Unbound primer was removed after centrifugation. The primer-bound beads were resuspended in 20 mM Hepes buffer, pH 7.5 and used in the assay at final concentrations of 20 nM primer and 0.67 μg/μl beads. Order of addition in the assay: enzyme (14 nM) was added to diluted compound followed by the addition of a mixture of template (0.2 nM), ^3H-UTP (0.6 μCi, 0.29 μM), and primer-bound beads, to initiate the reaction; concentrations given are final. Reactions were allowed to proceed for 4 hours at 30° C.
The IC50 values for compounds were determined using seven different [I]. […]
In the case of `COC(=O)c1ccc2c(C3CCCCC3)c3n(c2c1)CC(C(=O)N1CCOCC1)=Cc1ccc(Cl)cc1-3`, the IC50 was > 1 µM.
Same read-out and setting: to `O=C(NS(=O)(=O)C1CC1)c1ccc2c(C3CCCCC3)c3n(c2c1)CC(C(=O)N1CCOCC1)Cc1ccccc1-3` (centres unmarked) [drawing 288] belongs 0.02 to 1 µM; to `O=C(NS(=O)(=O)C1CC1)c1ccc2c(C3CCCCC3)c3n(c2c1)CC(C(=O)N1CCOCC1)Cc1ccccc1-3` (centres unmarked) [drawing 289], 0.02 to 1 µM; to `COC(=O)c1ccc2c(C3CCCCC3)c3n(c2c1)CC(C(=O)OCc1ccccc1)=Cc1ccccc1-3` [drawing 322], > 1 µM.
On the same count and under the same terms, to `CS(=O)(=O)NC(=O)c1ccc2c(C3CCCCC3)c3n(c2c1)CC(C(=O)N1CCOCC1)Cc1ccccc1-3` (centres unmarked) [drawing 348] belongs 0.02 to 1 µM.

Staying with this assay, now noted: preincubation protocol.
For `COC(=O)c1ccc2c(C3CCCCC3)c3n(c2c1)C(O)c1cc(N(C)C)ccc1-3` (centres unmarked), the IC50 was > 4 µM.
Regarding `COC(=O)C1=Cc2occc2-c2c(C3CCCCC3)c3ccc(C(=O)OC)cc3n2C1`, the IC50 is > 12.5 µM.
On to `COC(=O)c1ccc2c(C3CCCCC3)c3n(c2c1)CC(C(=O)O)=Cc1occc1-3`, for which the half-inhibitory concentration (IC50) was 1 to 10 µM.
With `COC(=O)c1ccc2c(C3CCCCC3)c3n(c2c1)CC(C(=O)NCC=O)=Cc1cc(OC)ccc1-3`, the half-inhibitory concentration (IC50) lay within 0.01 to 1 µM.
The same measure, in the same setting: in the case of `COC(=O)C1=Cc2cc(N(C)C)ccc2-c2c(C3CCCCC3)c3ccc(C(=O)OC)cc3n2C1` it was > 12.5 µM; in that of `COC(=O)c1ccc2c(C3CCCCC3)c3n(c2c1)CC(C(=O)N1CCOCC1)=Cc1occc1-3`, > 4 µM; in that of `COC(=O)c1ccc2c(C3CCCCC3)c3n(c2c1)CC(C(=O)N1C[C@@H](C)O[C@@H](C)C1)=Cc1occc1-3`, > 4 µM.

Another assay deals with HCV replicon. The assay is described as follows: HCV replicon FRET assay. Type of assay: cell-based. Particulars: Hepatitis C virus; FRET assay; read-out: EC50. On the procedure: The IC50 values for compounds were determined using seven different [I]. IC50 values were calculated from the inhibition using the formula y=A+((B−A)/(1+((C/x)^D))). FRET Assay Preparation. To perform the HCV FRET screening assay, 96-well cell culture plates were used. The FRET peptide (Anaspec, Inc.) (Taliani et al., Anal. Biochem. 240:60-67 (1996), hereby incorporated by reference in its entirety) contains a fluorescence donor, EDANS, near one end of the peptide and an acceptor, DABCYL, near the other end. The fluorescence of the peptide is quenched by […] resonance energy transfer (RET) between the donor and the acceptor, but as the NS3 protease cleaves the peptide the products are released from RET quenching and the fluorescence of the donor becomes apparent. The assay reagent was made as follows: 5× cell Luciferase cell culture lysis reagent from Promega (#E153A) diluted to 1× with dH2O, NaCl added to 150 mM final, the FRET peptide diluted to 20 uM final from a 2 mM stock.
To prepare plates, HCV replicon cells, with or without a Renilla luciferase reporter gene, were trypsinized and placed into each well of a 96-well plate with titrated test compounds added in columns 3 through 12; columns 1 and 2 contained a control compound (HCV protease inhibitor), and the bottom row contained cells without compound. The plates were then placed in a CO2 incubator at 37 degrees C.
Assays. Subsequent to addition of the test compounds described above (FRET Assay Preparation), at various times the plate was removed and Alamar blue solution (Trek Diagnostics, #00-100) was added per well as a measure of cellular toxicity. After reading in a Cytoflour 4000 instrument (PE Biosystems), plates were rinsed with PBS and then used for FRET assay by the addition of 30 ul of the FRET peptide assay reagent described above (FRET Assay Preparation) per well. The plate was then placed into the Cytoflour 4000 instrument which had been set to 340 excite/490 emission, automatic mode for 20 cycles and the plate read in a kinetic mode. Typically, the signal to noise using an endpoint analysis after the reads was at least three-fold. Alternatively, after Alamar blue reading, plates were rinsed with PBS, 50 ul of DMEM (high glucose) without phenol red was added and plates were then used for luciferase assay using the Promega Dual-Glo Luciferase Assay System.
Compound analysis was determined by quantification of the relative HCV replicon inhibition and the relative cytotoxicity values. To calculate cytoxicity values, the average Alamar Blue fluorescence signals from the control wells were set as 100% non-toxic. The individual signals in each of the compound test wells were then divided by the average control signal and multiplied by 100% to determine […]. To calculate the HCV replicon inhibition values, an average background value was obtained from the two wells containing the highest amount of HCV protease inhibitor at the end of the assay period. These numbers were similar to those obtained from naïve Huh-7 cells.
The background numbers were then subtracted from the average signal obtained from the control wells and this number was used as 100% activity. The individual signals in each of the compound test wells were then divided by the averaged control values after background subtraction and multiplied by 100% to determine percent activity. EC50 values for a protease inhibitor titration were calculated as the concentration which caused a 50% reduction in FRET or luciferase activity. The two numbers generated for the compound plate, percent cytoxicity and percent activity were used to determine compounds of interest for further analysis.
With `O=C(O)c1ccc2c(C3CCCCC3)c3n(c2c1)C/C=C\COc1ccccc1-3`, the half-maximal effective concentration (EC50) is 1 to 10 µM.
Take `COC(=O)/C=C/c1ccc(NC(=O)C2(NC(=O)c3ccc4c(C5CCCCC5)c5n(c4c3)CCCn3ccnc3-5)CCCC2)cc1`: the EC50 was in the range of 1 to 10 µM.
As for `CC(C)(C)OC(=O)N1CCCCn2c(c(C3CCCCC3)c3ccc(C(=O)NC4(C(=O)Nc5ccc(/C=C/C(=O)O)cc5)CCCC4)cc32)-c2ccccc21`, the EC50 was in the range of 1 to 10 µM.
With `O=C(NC1(C(=O)O)CCCC1)c1ccc2c(C3CCCCC3)c3n(c2c1)CCCCNc1ccccc1-3`, the EC50 lay in the range of 1 to 10 µM.
As to `COC(=O)/C=C/c1ccc(NC(=O)C2(NC(=O)c3ccc4c(C5CCCCC5)c5n(c4c3)CCCc3nc[nH]c3-5)CCCC2)cc1`, the half-maximal effective concentration (EC50) lay in the range of 1 to 10 µM.
Still for that read-out and setting: to `O=C(O)/C=C/c1ccc(NC(=O)C2(NC(=O)c3ccc4c(C5CCCCC5)c5n(c4c3)CCCc3nc[nH]c3-5)CCCC2)cc1` belongs 1 to 10 µM; to `O=C(O)c1ccc2c(C3CCCCC3)c3n(c2c1)CCCc1nc[nH]c1-3`, > 10 µM.
Still for that read-out and setting: in the case of `CN1C(=O)Cn2c(c(C3CCCCC3)c3ccc(C(=O)NS(=O)(=O)N(C)C)cc32)-c2ccccc21` it was 0.01 to 1 µM.
Take `O=C(O)c1ccc(-c2cnc(NC(=O)C3(NC(=O)c4ccc5c(C6CCCCC6)c6n(c5c4)CC=Cc4ccccc4-6)CCCC3)s2)cc1`: the half-maximal effective concentration (EC50) is 0.01 to 1 µM.
`O=C(NC1(C(=O)Nc2nccs2)CCCC1)c1ccc2c(C3CCCCC3)c3n(c2c1)CC=Cc1ccccc1-3`: the 50% effective concentration (EC50) was 0.01 to 1 µM.
On the same count and under the same terms, in the case of `O=C(NC1(C(=O)O)CCNCC1)c1ccc2c(C3CCCCC3)c3n(c2c1)CC=Cc1ccccc1-3` it was 1 to 10 µM.
The same measure, in the same setting: in the case of `O=C(O)c1ccc2c(C3CCCCC3)c3n(c2c1)CCCc1nccnc1-3` it was 1 to 10 µM.
Same read-out and setting: in the case of `O=C(O)c1ccc2c(C3CCCCC3)c3n(c2c1)CCNc1ccccc1-3` it was 1 to 10 µM.
As to `COC(=O)/C=C/c1ccc(NC(=O)C2(NC(=O)c3ccc4c(C5CCCCC5)c5n(c4c3)CCCc3nccnc3-5)CCCC2)cc1`, the EC50 was in the range of 1 to 10 µM.
`COC(=O)/C=C/c1ccc(NC(=O)C2(NC(=O)c3ccc4c(C5CCCCC5)c5n(c4c3)CC(C(=O)NCCN(C)C)=Cc3ccccc3-5)CCCC2)cc1`: the concentration for a half-maximal effect (EC50) was in the range of 0.01 to 1 µM.
Same read-out and setting: to `COC(=O)/C=C/c1ccc(NC(=O)C2(NC(=O)c3ccc4c(C5CCCCC5)c5n(c4c3)CC(=O)N(C)c3ccccc3-5)CCCC2)cc1` belongs 0.01 to 1 µM; to `CCOC(=O)/C=C/c1ccc(NC(=O)C2(NC(=O)c3ccc4c(C5CCCCC5)c5n(c4c3)CCN(C(=O)OC(C)(C)C)c3ccccc3-5)CCCC2)cc1`, 0.01 to 1 µM.
In the case of `CCOC(=O)/C=C/c1ccc(NC(=O)C2(NC(=O)c3ccc4c(C5CCCCC5)c5n(c4c3)CCNc3ccccc3-5)CCCC2)cc1`, the concentration giving a half-maximal response (EC50) was 0.01 to 1 µM.
For the molecule `O=C(O)c1ccc2c(C3CCCCC3)c3n(c2c1)C(=O)NCc1ccccc1-3`, the EC50 is > 10 µM.
Still for that read-out and setting: in the case of `CN1Cc2ccccc2-c2c(C3CCCCC3)c3ccc(C(=O)O)cc3n2C1=O` it was > 10 µM.
Same read-out and setting: to `CC1=C(C(=O)N2CCOCC2)Cn2c(c(C3CCCCC3)c3ccc(C(=O)NS(=O)(=O)N(C)C)cc32)-c2ccccc21` belongs 0.01 to 1 µM.
For the molecule `COC(=O)c1ccc2c(C3CCCCC3)c3n(c2c1)CC(C(=O)N1C[C@@H](C)O[C@@H](C)C1)=Cc1c(OC)cccc1-3`, the concentration for a half-maximal effect (EC50) is > 3.3 µM.
Same read-out and setting: to `COc1cc2c(cn1)-c1c(C3CCCCC3)c3ccc(C(=O)O)cc3n1CC(C(=O)N1C[C@@H](C)O[C@@H](C)C1)=C2` belongs 1 to 10 µM.
